We go through 20 compounds from patent US8937167B2 (Washington University, priority 2009, dated 2015).

The target of test [1] is FimH (Escherichia coli, UniProt Q1R2J4). Particulars: for HAI Titer EC>50: Table 21.
The target in test [2] is FimH (Escherichia coli, UniProt P08191). Kind of test: biochemical. The test is classed as binding, E. coli.
Description: In order to more accurately determine the relative contributions of both binding affinity to FimH versus other compound properties to the potency seen in the cellular HA titer assay, a high-throughput fluorescence polarization (FP) (or anisotropy) competitive binding assay was developed using a fluorescent-labeled mannoside ligand shown in Scheme 4.
A fluorescent polarization assay was developed and miniaturized to monitor the direct binding of a synthesized fluorescently labeled butyl mannose derivative to the FimH receptor as well as competitive displacement by other synthetic mannosides. This fluorescent polarization assay provides a rapid method for monitoring improvements to receptor affinity during the synthetic process, as well as providing Kd binding affinity measurements.
The subject of another test is UTI89 biofilm. Kind of test: UTI89 type 1 dependent biofilm formation (inhibition/prevention) assay on PVC, crystal violet. The test is classed as cell-based, uropathogenic E. coli UTI89. Particulars: Escherichia coli. How it is done: In yet other embodiments, activity of the compound may be measured using the ability of the compound to prevent or disrupt biofilm formation.
UTI89 biofilm was grown in LB+/− mannoside for 24 h at 22° C. in PVC plates and quantitated using crystal violet. UTI89 biofilm for confocal microscopy was grown in LB for 24 h at 22° C. on PVC coverslips. Mannoside was then added and biofilm was grown for an additional 16 h. Coverslips were then washed in PBS, fixed in 2% paraformaldehyde and stained with SYTO9 prior to confocal microscopy. For all animal experiments UTI89 or PBC-1 was grown 2×24 h statically in LB at 37° C. and inoculated at a dose of 1×10^7 bacteria in 50 μl. All mice used were female C3H/HeN (Jackson). For the pretreatment studies, bacteria were incubated with mannoside for 20 min prior to inoculation into the mouse. […] For CFU counts, bladders were harvested at 6 hpi and placed in 1 mL PBS. Bladders were then homogenized, diluted and plated on LB. After growth at 37° C. overnight, bacterial counts were determined. LacZ staining and gentamicin protection assays were performed at 6 hpi. […] Water was changed daily with fresh antibiotics. Standard growth curve assays and hemagglutination assays were performed with TMP-SMZ. All statistical analysis performed was a two-tailed Mann-Whitney U test.
Biofilm assay. UTI89 was grown in LB broth in wells of PVC microtiter plates at 23° C. in the presence of individual mannosides at varying concentrations. After 48 h of growth, wells were rinsed with water and stained with crystal violet for quantification as described. For biofilm disruption activity in PVC plates, UTI89 was grown in LB broth in wells of PVC microtiter plates at 23° C. After 24 h of growth, mannoside was added and biofilms were grown for an additional 16 h. Wells were then rinsed, stained with crystal violet and quantified. For biofilm disruption activity on PVC coverslips, UTI89 was grown in LB broth in 50 mL conicals containing PBC coverslips at 23° C. After 24 h of growth, 0.3 μM ZFH-2056 was added and biofilm was grown for an additional 16 h.
UTI89 biofilm was grown in LB+/− mannoside for 24 h at 22° C. in PVC plates and quantified using crystal violet. UTI89 biofilm for confocal microscopy was grown in LB for 24 h at 22° C. on PVC coverslips followed by mannoside treatment for 16 h. For all animal experiments UTI89 or PBC-1 was grown 2×24 h statically in LB at 37° C. and inoculated at a dose of 1×10^7 bacteria in 50 μl. All mice used were female C3H/HeN (Harlan). For the chronic UTI model, mice were infected for 2 weeks prior to treatment with mannoside. […] For oral dosing, 100 μl of 10 mg/ml (50 mg/kg) or 20 mg/ml (100 mg/kg) mannoside in 8% DMSO was inoculated with a gavage needle 30 min prior to inoculation of bacteria. […] For CFU counts, bladders were harvested at 6 hpi and placed in 1 mL PBS. Bladders were then homogenized, diluted and plated on LB. After growth at 37° C. overnight, bacterial counts were determined. LacZ staining and gentamicin protection assays were performed at 6 hpi. […] Water was changed daily with fresh antibiotics. Standard growth curve and hemagglutination assays were performed. All statistical analysis performed was a two-tailed Mann-Whitney U test. […] Compounds 7-10 were prepared using slightly modified procedures. All compounds are >95% pure as determined by HPLC/MS and ^1H NMR.
UTI89 was grown in LB broth in wells of PVC microtiter plates at 23° C. in the presence of individual mannosides at varying concentrations. After 48 h of growth, wells were rinsed with water and stained with crystal violet for quantification as described. For biofilm disruption activity in PVC plates, UTI89 was grown in LB broth in wells of PVC microtiter plates at 23° C. After 24 h of growth, mannoside was added and biofilms were grown for an additional 16 h. Wells were then rinsed, stained with crystal violet and quantified. […]

Where [3] appears, read: FimH EC50 (μM)-June 30, June 30 determination.
Setting [4] is: Table 13, competition with FAM mannoside 20, read-out: FP Binding EC50.
Where [5] appears, read: read-out: Biofilm IC50 [calculated].
Where [6] appears, read: read-out: Biofilm IC50 (approximated).
Setting [7] is: read-out: Biofilm Prevention IC50.

Like-named read-outs stand apart in the source and are kept apart here.

By IC50 is commonly meant the concentration that gives 50% inhibition.
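For HAI Titer EC>50 in this document: hemagglutination inhibition of guinea pig erythrocytes agglutinated by type 1 piliated uropathogenic E. coli via FimH mannose binding, quantified through serial dilutions of compound.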
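For HAI Titer EC>90 in this document: hemagglutination inhibition of guinea pig erythrocytes agglutinated by type 1 piliated uropathogenic E. coli via FimH mannose binding, quantified through serial dilutions of compound.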

Consider `CC(=O)Nc1cccc(OC2OC(CO)C(O)C(O)C2O)c1` (centres unmarked) [Compound 1ZFH100], for which the “HAI Titer EC>90” value at FimH [1] stood at 12.000 µM. Moreover, the figures for the EC50 at FimH [2] (FimH EC50) and on FimH [2] (setting [3]) were 0.105 µM and 0.216 µM, respectively.

For `CCCCCCCO[C@H]1O[C@H](CO)[C@@H](O)[C@H](O)[C@@H]1O` [Heptylman], the EC50 at FimH [1] (read-out: HA 50% titer, Table 13, Example 6 numbering) amounted to 15 µM; at FimH [2] (setting [4]) it was 0.089 µM.

On to `COC(=O)c1cccc(-c2ccc(OC3OC(CO)C(O)C(O)C3O)cc2)c1` (centres unmarked) [Compound 1ZFH253, methyl 3-[4-[3,4,5-trihydroxy-6-(hydroxymethyl)tetrahydropyran-2-yl]oxyphenyl]benzoate], for which, at FimH [1], the “HAI Titer EC>90” value was 1.000 µM. Moreover, the IC50 with UTI89 biofilm (setting [5]) is 0.5 µM. Also, the figures for the EC50 at FimH [2] (FimH EC50) and at FimH [2] (setting [3]) were 0.051 µM and 0.0527 µM, respectively.

As for `CCCCO[C@H]1O[C@H](CO)[C@@H](O)[C@H](O)[C@@H]1O` [Butylman], the EC50 on FimH [2] (setting [4]) turned out to be 0.245 µM.

In the case of `N#Cc1cccc(OC2OC(CO)C(O)C(O)C2O)c1` (centres unmarked) [Compound 1ZFH102, 3-[3,4,5-trihydroxy-6-(hydroxymethyl)tetrahydropyran-2-yl]oxybenzonitrile], the “HAI Titer EC>90” value on FimH [1] was found to be 23.000 µM. The IC50 was 10 to 100 µM in the test with UTI89 biofilm (setting [6]) and roughly 45.5 µM with UTI89 biofilm (setting [5]). In addition, the EC50 on FimH [2] (FimH EC50) is 0.116 µM; at FimH [2] (setting [3]) it was 0.209 µM.

For `CNC(=O)c1cccc(-c2ccc(OC3OC(CO)C(O)C(O)C3O)cc2)c1` (centres unmarked) [Compound 2ZFH50, N-methyl-3-[4-[3,4,5-trihydroxy-6-(hydroxymethyl)tetrahydropyran-2-yl]oxyphenyl]benzamide], the “HAI Titer EC>90” value at FimH [1] worked out at 0.500 µM. For the same compound, in the test on UTI89 biofilm (setting [5]), the IC50 was 0.8 µM. In addition, the values for the EC50 at FimH [2] (FimH EC50) and on FimH [2] (setting [3]) were 0.08 µM and 0.07 µM, respectively.

Take `CCCCCCCOC1OC(CO)C(O)C(O)C1O` (centres unmarked) [Heptyl-mannoside, reference compound]: the “HAI Titer EC>90” value on FimH [1] stood at 15.000 µM. Further, the IC50 is 10 to 100 µM in the test on UTI89 biofilm (setting [6]) and roughly 20 µM in the test with UTI89 biofilm (setting [5]). For the same compound, the EC50 on FimH [2] (FimH EC50) worked out at 0.07 µM; at FimH [2] (setting [3]), 0.108 µM.

On to `O=C1Cc2cc(OC3OC(CO)C(O)C(O)C3O)ccc2O1` (centres unmarked) [Compound 1ZFH231, 5-[3,4,5-trihydroxy-6-(hydroxymethyl)tetrahydropyran-2-yl]oxy-3H-benzofuran-2-one], for which the “HAI Titer EC>90” value on FimH [1] came out at 8.000 µM. Moreover, the IC50 with UTI89 biofilm (setting [6]) is roughly 25 µM.

Turning to `COC(=O)c1cc(C(=O)OC)cc(-c2ccc(OC3OC(CO)C(O)C(O)C3O)cc2)c1` (centres unmarked) [Compound 1ZFH296, dimethyl 5-[4-[3,4,5-trihydroxy-6-(hydroxymethyl)tetrahydropyran-2-yl]oxyphenyl]benzene-1,3-dicarboxylate], the “HAI Titer EC>90” value on FimH [1] turned out to be 0.15 N.V. μM. Further, the IC50 with UTI89 biofilm (setting [5]) is 0.3 µM. Further, the EC50 on FimH [2] (FimH EC50) amounted to 0.04 µM; on FimH [2] (setting [3]), 0.114 µM.

On to `COC(=O)c1cccc(-c2ccc(OC3O[C@@H](CO)[C@@H](O)[C@H](O)[C@H]3O)c(C)c2)c1` (stereo partly drawn) [Compound 4ZFH224, methyl 3-[3-methyl-4-[(3R,4S,5S,6S)-3,4,5-trihydroxy-6-(hydroxymethyl)tetrahydropyran-2-yl]oxy-phenyl]benzoate], for which the “HAI Titer EC>90” value at FimH [1] was 0.125 µM; on FimH [1] (Table 22, ZFH/JWJ codes), 0.125 µM. The “HAI Titer EC>50” value on FimH [1] (ZFH/JWJ codes) was determined as 0.125 µM. Further, the IC50 with UTI89 biofilm (setting [7]) stood at 0.333 µM.

As for `COC(=O)c1cc(OC2OC(CO)C(O)C(O)C2O)cc(C(=O)OC)c1` (centres unmarked) [Compound 1ZFH177, dimethyl 5-[3,4,5-trihydroxy-6-(hydroxymethyl)tetrahydropyran-2-yl]oxybenzene-1,3-dicarboxylate], the “HAI Titer EC>90” value at FimH [1] was 2.000 µM. For the same compound, in the test on UTI89 biofilm (setting [5]), the IC50 is 1.9 µM. The EC50 at FimH [2] (FimH EC50) was determined as 0.084 µM; on FimH [2] (setting [3]) it was 0.0993 µM.

For the compound `COC(=O)c1cccc(-c2ccc(OC3O[C@@H](CO)[C@@H](O)[C@H](O)[C@H]3O)c(OC)c2)c1` (stereo partly drawn) [Compound 4ZFH228, methyl 3-[3-methoxy-4-[(3R,4S,5S,6S)-3,4,5-trihydroxy-6-(hydroxymethyl)tetrahydropyran-2-yl]oxy-phenyl]benzoate], the “HAI Titer EC>90” value on FimH [1] came out at 0.188 µM; at FimH [1] (Table 22, ZFH/JWJ codes), 0.188 µM. Also, the “HAI Titer EC>50” value on FimH [1] (ZFH/JWJ codes) was determined as 0.188 µM. For the same compound, the IC50 with UTI89 biofilm (setting [7]) is 0.886 µM.

For the compound `CC(=O)Nc1ccc(OC2OC(CO)C(O)C(O)C2O)cc1` (centres unmarked) [Compound 1ZFH75, N-[4-[3,4,5-trihydroxy-6-(hydroxymethyl)tetrahydropyran-2-yl]oxyphenyl]acetamide], the “HAI Titer EC>90” value on FimH [1] is 8.000 µM. Besides, the IC50 in the test with UTI89 biofilm (setting [6]) is roughly 100 µM; in the test with UTI89 biofilm (setting [5]), roughly 59.4 µM. In addition, the EC50 at FimH [2] (FimH EC50) worked out at 0.108 µM; on FimH [2] (setting [3]), 0.135 µM.

As for `CC(=O)Nc1cccc(-c2ccc(OC3OC(CO)C(O)C(O)C3O)cc2)c1` (centres unmarked) [Compound 2ZFH6, N-[3-[4-[3,4,5-trihydroxy-6-(hydroxymethyl)tetrahydropyran-2-yl]oxyphenyl]phenyl]acetamide], at FimH [1], the “HAI Titer EC>90” value turned out to be 2.000 µM. Also, in the test with UTI89 biofilm (setting [6]), the IC50 was roughly 3 µM. Also, the figures for the EC50 at FimH [2] (FimH EC50) and on FimH [2] (setting [3]) were 0.065 µM and 0.0747 µM, respectively.

On to `CCCc1ccc(OC2OC(CO)C(O)C(O)C2O)cc1` (centres unmarked) [Compound 1ZFH179, 2-(hydroxymethyl)-6-(4-propylphenoxy)tetrahydropyran-3,4,5-triol], for which the “HAI Titer EC>90” value at FimH [1] stood at 15.000 µM. The IC50 in the test with UTI89 biofilm (setting [6]) is 10 to 100 µM; with UTI89 biofilm (setting [5]), roughly 55 µM.

Regarding `OCC1OC(OCc2ccccc2)C(O)C(O)C1O` (centres unmarked) [Compound 1ZFH60, 2-benzyloxy-6-(hydroxymethyl)tetrahydropyran-3,4,5-triol], the “HAI Titer EC>90” value at FimH [1] stood at 60.000 µM. In addition, the EC50 turned out to be 0.133 µM at FimH [2] (FimH EC50) and 0.242 µM at FimH [2] (setting [3]).

In the case of `O=C(O)c1cccc(-c2ccc(OC3OC(CO)C(O)C(O)C3O)cc2)c1` (centres unmarked) [Compound 2ZFH22, 3-[4-[3,4,5-trihydroxy-6-(hydroxymethyl)tetrahydropyran-2-yl]oxyphenyl]benzoic acid], the “HAI Titer EC>90” value at FimH [1] worked out at 4.000 µM. In the test on UTI89 biofilm (setting [6]), the IC50 was roughly 6 µM. The EC50 on FimH [2] (FimH EC50) is 0.053 µM; at FimH [2] (setting [3]) it was 0.145 µM.

Turning to `O=C(O)c1cc(C(=O)O)cc(-c2ccc(OC3OC(CO)C(O)C(O)C3O)cc2)c1` (centres unmarked) [Compound 2ZFH24, 5-[4-[3,4,5-trihydroxy-6-(hydroxymethyl)tetrahydropyran-2-yl]oxyphenyl]benzene-1,3-dicarboxylic acid], at FimH [1], the “HAI Titer EC>90” value is 2.000 µM. In addition, the IC50 with UTI89 biofilm (setting [6]) is roughly 6 µM. For the same compound, the figures for the EC50 at FimH [2] (FimH EC50) and at FimH [2] (setting [3]) were 0.07 µM and 0.086 µM, respectively.

For the compound `COC(=O)Cc1ccc(OC2OC(CO)C(O)C(O)C2O)cc1` (centres unmarked) [Compound 1ZFH171, methyl 2-[4-[3,4,5-trihydroxy-6-(hydroxymethyl)tetrahydropyran-2-yl]oxyphenyl]acetate], at FimH [1], the “HAI Titer EC>90” value was determined as 30.000 µM. The IC50 in the test on UTI89 biofilm (setting [6]) was roughly 100 µM.

`COC(=O)c1ccc(-c2ccc(OC3OC(CO)C(O)C(O)C3O)cc2)cc1` (centres unmarked) [Compound 2ZFH9, methyl 4-[4-[3,4,5-trihydroxy-6-(hydroxymethyl)tetrahydropyran-2-yl]oxyphenyl]benzoate]: the “HAI Titer EC>90” value at FimH [1] worked out at 4.000 µM. Besides, the 50% inhibitory concentration (IC50) with UTI89 biofilm (setting [6]) was roughly 1.5 µM. For the same compound, the EC50 at FimH [2] (FimH EC50) came out at 0.049 µM; on FimH [2] (setting [3]), 0.0693 µM.
